Experimental data as given in patent US6358885B1, “Substituted phenylheterocyclic herbicides” (Mississippi State University, priority 1992, dated 2002).

Key:
Experiment in all cases: Test B preemergence/postemergence greenhouse plant response rating 0 to 10
bedstraw = type: in vivo, Galium aparine; conditions: for Plant response rating, Bedstraw: 0 to 10 scale
Method in brief: (§1)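 Both application timings were run together: seeds got compound preemergence, and established seedlings (two to eighteen cm) got it postemergence. Non-phytotoxic solvent carried the chemical. Ratings are visual, versus controls, at twelve to sixteen days.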

sorghum = type: in vivo, Sorghum bicolor; conditions: for Plant response rating, Sorghum: 0 to 10 scale; for Plant response rating (0 to 10 scale), Sorghum: Rate 100 g/ha
Method in brief: as §1

cotton = type: in vivo, Gossypium hirsutum; conditions: for Plant response rating, Cotton: 0 to 10 scale
Method in brief: as §1

wheat = type: in vivo, Triticum aestivum; conditions: for Plant response rating, Wheat: 0 to 10 scale; for Plant response rating (0 to 10 scale), Wheat: Rate 100 g/ha
Method in brief: as §1

sugar beet = type: in vivo, Beta vulgaris; conditions: for Plant response rating, Sugar beet: 0 to 10 scale; for Plant response rating (0 to 10 scale), Sugar beet: Rate 100 g/ha
Method in brief: as §1

wild oat = type: in vivo, Avena fatua; conditions: for Plant response rating, Wild oat: 0 to 10 scale; for Plant response rating (0 to 10 scale), Wild oat: Rate 100 g/ha
Method in brief: as §1

lambsquarters = type: in vivo, Chenopodium album; conditions: for Plant response rating, Lambsquarter: 0 to 10 scale; for Plant response rating (0 to 10 scale), Lambsquarter: Rate 100 g/ha
Method in brief: as §1

blackgrass = type: in vivo, Alopecurus myosuroides; conditions: for Plant response rating, Blackgrass: 0 to 10 scale
Method in brief: as §1

barley = type: in vivo, Hordeum vulgare; conditions: for Plant response rating, Barley: 0 to 10 scale
Method in brief: as §1

Clc1ccc(-c2nc3n(c2Cl)CCC=C3)c(Cl)c1 [Compound 1]
Plant response rating (0 to 10 scale), Bedstraw (bedstraw; POSTEMERGENCE, Rate 50 g/ha): 3 | Plant response rating, Bedstraw (bedstraw; POSTEMERGENCE, Rate 200 g/ha): 3 | Plant response rating, Bedstraw (bedstraw; PREEMERGENCE, Rate 50 g/ha): 0 | Plant response rating, Bedstraw (bedstraw; Rate 200 g/ha, PREEMERGENCE): 0 | Plant response rating, Sorghum (sorghum; POSTEMERGENCE, Rate 50 g/ha): 4 | Plant response rating, Sorghum (sorghum; POSTEMERGENCE, Rate 200 g/ha): 4 | Plant response rating, Sorghum (sorghum; PREEMERGENCE, Rate 50 g/ha): 0 | Plant response rating, Sorghum (sorghum; Rate 200 g/ha, PREEMERGENCE): 0 | Plant response rating (0 to 10 scale), Cotton (cotton; POSTEMERGENCE, Rate 50 g/ha): 7 | Plant response rating, Cotton (cotton; POSTEMERGENCE, Rate 200 g/ha): 8 | Plant response rating, Cotton (cotton; PREEMERGENCE, Rate 50 g/ha): 0 | Plant response rating, Cotton (cotton; Rate 200 g/ha, PREEMERGENCE): 0 | Plant response rating, Wheat (wheat; POSTEMERGENCE, Rate 50 g/ha): 1 | Plant response rating, Wheat (wheat; POSTEMERGENCE, Rate 200 g/ha): 2 | Plant response rating, Wheat (wheat; PREEMERGENCE, Rate 50 g/ha): 0 | Plant response rating, Wheat (wheat; Rate 200 g/ha, PREEMERGENCE): 0 | Plant response rating, Sugar beet (sugar beet; POSTEMERGENCE, Rate 50 g/ha): 8 | Plant response rating, Sugar beet (sugar beet; POSTEMERGENCE, Rate 200 g/ha): 10 | Plant response rating, Sugar beet (sugar beet; PREEMERGENCE, Rate 50 g/ha): 0 | Plant response rating, Sugar beet (sugar beet; Rate 200 g/ha, PREEMERGENCE): 0 | Plant response rating, Wild oat (wild oat; POSTEMERGENCE, Rate 50 g/ha): 2 | Plant response rating, Wild oat (wild oat; POSTEMERGENCE, Rate 200 g/ha): 2 | Plant response rating, Wild oat (wild oat; Rate 200 g/ha, PREEMERGENCE): 0 | Plant response rating, Lambsquarter (lambsquarters; POSTEMERGENCE, Rate 50 g/ha): 4 | Plant response rating, Lambsquarter (lambsquarters; POSTEMERGENCE, Rate 200 g/ha): 7 | Plant response rating, Lambsquarter (lambsquarters; PREEMERGENCE, Rate 50 g/ha): 0 | Plant response rating, Lambsquarter (lambsquarters; Rate 200 g/ha, PREEMERGENCE): 0 | Plant response rating (0 to 10 scale), Blackgrass (blackgrass; POSTEMERGENCE, Rate 50 g/ha): 0 | Plant response rating, Blackgrass (blackgrass; POSTEMERGENCE, Rate 200 g/ha): 1 | Plant response rating, Blackgrass (blackgrass; PREEMERGENCE, Rate 50 g/ha): 0 | Plant response rating, Blackgrass (blackgrass; Rate 200 g/ha, PREEMERGENCE): 0 | Plant response rating (0 to 10 scale), Barley (barley; POSTEMERGENCE, Rate 50 g/ha): 3 | Plant response rating, Barley (barley; POSTEMERGENCE, Rate 200 g/ha): 3 | Plant response rating, Barley (barley; PREEMERGENCE, Rate 50 g/ha): 0 | Plant response rating, Barley (barley; Rate 200 g/ha, PREEMERGENCE): 0

Clc1ccc(-c2nc3n(c2Br)CCCC3)c(Cl)c1 [Compound 2]
Plant response rating (0 to 10 scale), Bedstraw (bedstraw; POSTEMERGENCE, Rate 50 g/ha): 3 | Plant response rating (0 to 10 scale), Bedstraw (bedstraw; POSTEMERGENCE, Rate 100 g/ha): 3 | Plant response rating, Bedstraw (bedstraw; POSTEMERGENCE, Rate 200 g/ha): 4 | Plant response rating, Bedstraw (bedstraw; POSTEMERGENCE, Rate 400 g/ha): 3 | Plant response rating, Bedstraw (bedstraw; PREEMERGENCE, Rate 50 g/ha): 0 | Plant response rating (0 to 10 scale), Bedstraw (bedstraw; PREEMERGENCE, Rate 100 g/ha): 0 | Plant response rating, Bedstraw (bedstraw; PREEMERGENCE, Rate 400 g/ha): 0 | Plant response rating, Bedstraw (bedstraw; Rate 200 g/ha, PREEMERGENCE): 3 | Plant response rating, Sorghum (sorghum; POSTEMERGENCE, Rate 50 g/ha): 4 | Plant response rating (0 to 10 scale), Sorghum (sorghum; POSTEMERGENCE): 4 | Plant response rating, Sorghum (sorghum; POSTEMERGENCE, Rate 200 g/ha): 5 | Plant response rating, Sorghum (sorghum; POSTEMERGENCE, Rate 400 g/ha): 5 | Plant response rating, Sorghum (sorghum; PREEMERGENCE, Rate 50 g/ha): 0 | Plant response rating (0 to 10 scale), Sorghum (sorghum; PREEMERGENCE): 0 | Plant response rating, Sorghum (sorghum; PREEMERGENCE, Rate 400 g/ha): 0 | Plant response rating, Sorghum (sorghum; Rate 200 g/ha, PREEMERGENCE): 0 | Plant response rating (0 to 10 scale), Cotton (cotton; POSTEMERGENCE, Rate 50 g/ha): 9 | Plant response rating (0 to 10 scale), Cotton (cotton; POSTEMERGENCE, Rate 100 g/ha): 10 | Plant response rating, Cotton (cotton; POSTEMERGENCE, Rate 200 g/ha): 9 | Plant response rating, Cotton (cotton; POSTEMERGENCE, Rate 400 g/ha): 10 | Plant response rating, Cotton (cotton; PREEMERGENCE, Rate 50 g/ha): 0 | Plant response rating (0 to 10 scale), Cotton (cotton; PREEMERGENCE, Rate 100 g/ha): 0 | Plant response rating, Cotton (cotton; PREEMERGENCE, Rate 400 g/ha): 2 | Plant response rating, Cotton (cotton; Rate 200 g/ha, PREEMERGENCE): 0 | Plant response rating, Wheat (wheat; POSTEMERGENCE, Rate 50 g/ha): 1 | Plant response rating (0 to 10 scale), Wheat (wheat; POSTEMERGENCE): 2 | Plant response rating, Wheat (wheat; POSTEMERGENCE, Rate 200 g/ha): 2 | Plant response rating, Wheat (wheat; POSTEMERGENCE, Rate 400 g/ha): 2 | Plant response rating, Wheat (wheat; PREEMERGENCE, Rate 50 g/ha): 0 | Plant response rating (0 to 10 scale), Wheat (wheat; PREEMERGENCE): 0 | Plant response rating, Wheat (wheat; PREEMERGENCE, Rate 400 g/ha): 0 | Plant response rating, Wheat (wheat; Rate 200 g/ha, PREEMERGENCE): 0 | Plant response rating, Sugar beet (sugar beet; POSTEMERGENCE, Rate 50 g/ha): 9 | Plant response rating (0 to 10 scale), Sugar beet (sugar beet; POSTEMERGENCE): 9 | Plant response rating, Sugar beet (sugar beet; POSTEMERGENCE, Rate 200 g/ha): 10 | Plant response rating, Sugar beet (sugar beet; POSTEMERGENCE, Rate 400 g/ha): 10 | Plant response rating, Sugar beet (sugar beet; PREEMERGENCE, Rate 50 g/ha): 0 | Plant response rating (0 to 10 scale), Sugar beet (sugar beet; PREEMERGENCE): 0 | Plant response rating, Sugar beet (sugar beet; Rate 200 g/ha, PREEMERGENCE): 0 | Plant response rating, Wild oat (wild oat; POSTEMERGENCE, Rate 50 g/ha): 2 | Plant response rating (0 to 10 scale), Wild oat (wild oat; POSTEMERGENCE): 2 | Plant response rating, Wild oat (wild oat; POSTEMERGENCE, Rate 200 g/ha): 3 | Plant response rating, Wild oat (wild oat; POSTEMERGENCE, Rate 400 g/ha): 3 | Plant response rating (0 to 10 scale), Wild oat (wild oat; PREEMERGENCE): 0 | Plant response rating, Wild oat (wild oat; PREEMERGENCE, Rate 400 g/ha): 0 | Plant response rating, Wild oat (wild oat; Rate 200 g/ha, PREEMERGENCE): 0 | Plant response rating, Lambsquarter (lambsquarters; POSTEMERGENCE, Rate 50 g/ha): 9 | Plant response rating (0 to 10 scale), Lambsquarter (lambsquarters; POSTEMERGENCE): 9 | Plant response rating, Lambsquarter (lambsquarters; POSTEMERGENCE, Rate 200 g/ha): 9 | Plant response rating, Lambsquarter (lambsquarters; POSTEMERGENCE, Rate 400 g/ha): 9 | Plant response rating, Lambsquarter (lambsquarters; PREEMERGENCE, Rate 50 g/ha): 0 | Plant response rating (0 to 10 scale), Lambsquarter (lambsquarters; PREEMERGENCE): 0 | Plant response rating, Lambsquarter (lambsquarters; Rate 200 g/ha, PREEMERGENCE): 6 | Plant response rating (0 to 10 scale), Blackgrass (blackgrass; POSTEMERGENCE, Rate 50 g/ha): 1 | Plant response rating (0 to 10 scale), Blackgrass (blackgrass; POSTEMERGENCE, Rate 100 g/ha): 1 | Plant response rating, Blackgrass (blackgrass; POSTEMERGENCE, Rate 200 g/ha): 1 | Plant response rating, Blackgrass (blackgrass; POSTEMERGENCE, Rate 400 g/ha): 2 | Plant response rating, Blackgrass (blackgrass; PREEMERGENCE, Rate 50 g/ha): 0 | Plant response rating (0 to 10 scale), Blackgrass (blackgrass; PREEMERGENCE, Rate 100 g/ha): 0 | Plant response rating, Blackgrass (blackgrass; PREEMERGENCE, Rate 400 g/ha): 0 | Plant response rating, Blackgrass (blackgrass; Rate 200 g/ha, PREEMERGENCE): 0 | Plant response rating (0 to 10 scale), Barley (barley; POSTEMERGENCE, Rate 50 g/ha): 2 | Plant response rating (0 to 10 scale), Barley (barley; POSTEMERGENCE, Rate 100 g/ha): 2 | Plant response rating, Barley (barley; POSTEMERGENCE, Rate 200 g/ha): 3 | Plant response rating, Barley (barley; POSTEMERGENCE, Rate 400 g/ha): 2 | Plant response rating, Barley (barley; PREEMERGENCE, Rate 50 g/ha): 0 | Plant response rating (0 to 10 scale), Barley (barley; PREEMERGENCE, Rate 100 g/ha): 0 | Plant response rating, Barley (barley; PREEMERGENCE, Rate 400 g/ha): 0 | Plant response rating, Barley (barley; Rate 200 g/ha, PREEMERGENCE): 0
